In patent US20240269158A1, “THERAPEUTIC AGENTS AND METHODS FOR TREATMENT OF BARTONELLOSIS” (THE ADMINISTRATORS OF THE TULANE EDUCATIONAL FUND, priority 2021, published 2024):
Read-outs that look alike come from different tables or passages of the source.

How the values were obtained:
[1] = tested on: B. henselae and B. vinsonii; assay: Cell-free MBC assay, summary over both species; assay type: cell-based, Bartonella; conditions: 10 μg/ml
Procedure: Briefly, the bacterial culture that was treated with therapeutic agents for 96 hrs was collected into a 1.5 ml microcentrifuge tubes and centrifuged at 7000 rpm for 10 min. The supernatant was removed, and the bacterial pellet was washed with 1×PBS twice. The bacterial pellet was then resuspended in 100 μL of 1×PBS, plated onto blood agar plates and incubated at 37° C. with 5% CO2 for about 14 days. This assay was repeated three times with all the 6 different antibiotics (azlocillin, azithromycin, ceftriaxone, doxycycline, gentamicin and ampicillin) and at different concentrations.
For this assay, both B. henselae and B. vinsonii were grown in Grace's insect media and were tested against all of the 6 antibiotics (ceftriaxone, doxycycline, gentamicin, azithromycin, azlocillin, ampicillin). […] However, ceftriaxone, gentamicin, azithromycin, and azlocillin were all bactericidal and completely eliminated the growth at concentrations below 10 µg/ml. Table 2 provides comparison of MBCs for B. henselae and B. vinsonii strains in cell-free liquid culture medium determined by incubating the bacteria with antibiotics in a 96-well plate and plating on tryptic soy agar supplemented with 5% sheep blood. Additionally, MBC for B. henselae determined by DH82 cell-based assay (right column) is provided.

[2] = tested on: intracellular B. henselae in DH82 cells; assay: DH82 cell-based MBC assay (coculture); design: species or system Bartonella henselae (canine DH82 cells); conditions: for MBC: B. henselae, DH82 cell-based assay, 96 hours; for effect of individual therapeutic agent on B. henselae growth: DH82 cell-based system, 16 μg/ml, agents used individually
Procedure: DH82 are a canine cell line having a macrophage-like morphology. Cells were initially cultured in T75-Flasks (Corning, 430641U) until confluency was reached and were split at a ratio of 1:4 for every 2-3 days. Cells were then seeded into either 24-well cell culture plates (Corning, 3526) for coculture assay or 8-well chamber slides (Millipore #PEGGS0816) for immunofluorescence assays. A total of 50,000 cells were seeded into each well of a 24-well plate or per chamber of an 8-well chamber slide with EMEM with 15% FBS and incubated for 24-48 hours before infections.
Therapeutic agent stocks were prepared in the following solvents: 10 mg/ml of ceftriaxone (USP), doxycycline (Fisher scientific, D9891-1G), gentamicin (Fisher scientific, 1405-41-0), ampicillin (Fisher scientific, 69-52-3) and azlocillin (Flightpath) in sterile cell culture grade water, whereas 5 mg/ml of azithromycin (Sigma, PZ0007-5MG) was dissolved in sterile cell culture grade DMSO. Antibiotics were then aliquoted and stored at either −80° C. or −20° C. until further use. On the day of assay, these stock concentrations were diluted to 1 mg/ml and 100 μg/ml in the respected bacterial culture media for MIC and cell-free, liquid culture MBC assays. For the DH82 cell-based MBC assay, antibiotics were diluted in EMEM media supplemented with 15% heat inactivated FBS.
Bacteria (B. henselae) that were grown in Grace's insect media, were centrifuged at 7000 rpm for 10 min. The supernatant was removed and washed with 1×PBS for three times. After the washes, pellet was resuspended in EMEM media supplemented with 15% heat inactivated FBS. This bacterial suspension was then added to DH82 cells at a multiplicity of infection (MOI) of 1:50 and incubated for 2 hours. After 2 hours, unbound bacteria were removed by washing the cells with only EMEM media 3 times each 15 min wash. Cells were then incubated with EMEM+15% FBS media at 37° C. with 5% CO2 for 48 hours.
After 48 hrs of incubation, the media was removed from the cells and the therapeutic agents that were diluted in EMEM+15% FBS was added. Each therapeutic agent was diluted at 11 different concentrations (16, 8, 4, 2, 1, 0.5, 0.25, 0.125, 0.062, 0.031, 0.0156 μg/ml), as described above and incubated for 96 hours. […] The bactericidal activity of the therapeutic agents were then evaluated by plating the lysed cells on blood agar plates. Briefly, infected DH82 cells were initially washed for 30 min twice to remove the antibiotics that were added. Later, cells were osmotically lysed by adding 1 ml of sterile ice-cold distilled water and incubated for 5 min on ice. The lysed cells were then plated onto blood agar plates and incubated at 37° C. with 5% CO2 for about 10 days to evaluate the growth of viable B. henselae. This experiment was conducted in duplicates and repeated twice with all 6 antibiotics including 11 different concentrations. The untreated infected cells were used as a positive control and untreated uninfected cells served as a negative control. The CFU counts are presented as average±standard deviation.
To evaluate the bactericidal activity and to determine if these antibiotics could penetrate the eukaryotic […], a new DH82 cell-based coculture system was utilized. […] Uninfected cells stained with primary rabbit B. henselaehyperimmunized polyclonal (primary) and goat anti-rabbit IgG Alexa fluor 594 (secondary) antibodies were used as a negative control. As an isotype control, DH82 cells infected with B. henselae and incubated with primary rabbit IgG were used.

[3] = Bartonella henselae, read-out: MBC

| Molecule | growth on blood agar plates [1] | MBC [2, 3] [µg/mL] | effect of individual therapeutic agent on B. henselae growth [2] | MBC [2] [µg/mL] |
| --- | --- | --- | --- | --- |
| CC[C@H]1OC(=O)[C@H](C)[C@@H](O[C@H]2C[C@@](C)(OC)[C@@H](O)[C@H](C)O2)[C@H](C)[C@@H](O[C@@H]2O[C@H](C)C[C@H](N(C)C)[C@H]2O)[C@](C)(O)C[C@@H](C)CN(C)[C@H](C)[C@@H](O)[C@]1(C)O [Azithromycin, azithromycin] | no growth on blood agar plates | > 16 | showed reduced bacterial growth but were unable to completely inhibit the growth |  |
| CC1(C)S[C@@H]2[C@H](NC(=O)[C@H](NC(=O)N3CCNC3=O)c3ccccc3)C(=O)N2[C@H]1C(=O)O [Azlocillin, azlocillin] | no growth on blood agar plates | > 16 | showed reduced bacterial growth but were unable to completely inhibit the growth |  |
| CO/N=C(\C(=O)N[C@@H]1C(=O)N2C(C(=O)O)=C(CSc3nc(=O)c(=O)[nH]n3C)CS[C@H]12)c1csc(N)n1 [Ceftriaxone, ceftriaxone] | no growth on blood agar plates | > 16 |  |  |
| gentamicin |  |  |  | >16 |
